Reference: patent US20080280837A1, “Biologically Active Compounds with Anti-Angiogenic Properties” (priority 2004, published 2008)

Experiments:
Jurkat cell line = assay: Cell proliferation assay (CellTiter 96 AQueous One) as indicator of toxicity, Jurkat; type: cell-based; conditions: 100 μM
Experimental: (§1) A simple cell proliferation assay was used to determine the in vitro cytotoxicity of “compound 1.” Selected cell lines were cultured according to their specific requirements. The optimal cell density required for each cell line was determined. All compounds were tested at a single concentration in triplicate. Cell viability was determined using the CellTiter 96® AQueous One reagent from Promega Corporation.
(§2) Assays are performed by adding the test compound to the cells in culture and incubating the cells for a fixed period. The number of viable cells remaining after the incubation period is determined by adding a small amount of the CellTiter 96® AQueous One Solution Reagent directly to culture wells, incubating for 1-4 hours and then recording absorbance at 490 nm with a 96 well plate reader.
(§3) Controls in the assay include untreated cells, wells without cells and cells treated with know cytotoxic agents. Data is presented as % inhibition of cell proliferation.

MCF—7 cell line = assay: Cell proliferation assay (CellTiter 96 AQueous One) as indicator of toxicity, MCF-7; type: cell-based; conditions: MCF—7, 100 μM
Experimental: as §1, §2, §3

[1] = Human hepatocyte microsomal degradation half-life; type: in vitro ADME
Experimental: the final concentration of ACN in the microsomal incubation was 1%,
samples were incubated in a water bath at 37° C., and
45 μL aliquots were taken over 2 hr, quenched with ACN, placed on ice for 30 min to precipitate proteins and assayed by LC/MS/MS using either the Quattro Ultima Pt, LCT or Q-T of instruments.

[2] = test system: MV522 human NSCLC tumour xenograft; assay: Nude mouse model of human MV522 non-small cell lung cancer tumours; type: in vivo, nude mice
Experimental: Initial Maximum Tolerated Dose (MTD) studies were done in male nude mice to determine the appropriate intravenous dosing regimen for the MV522 human NSCLC tumour model. A range of doses between 0 and 50 mg/Kg for 28 days (qdx28) were tested. Mice were randomized into groups with 5 animals per group including vehicle control. Animals were weighed twice weekly starting on day one and observed daily for adverse reactions or toxicity due to the agent. MTD studies determined the selection of 20 mg/kg and 35 mg/kg for intravenous dosing once per day for 28 days in the MV522 human NSCLC tumour xenograft model.
Male nude mice (nu/nu) between 5 and 6 weeks of age weighing approximately 20 g were implanted subcutaneously (s.c) by trocar with fragments of MV522 human tumour carcinomas harvested from s.c growing tumours in host mice. MV-522 is a metastatic human lung adenocarcinoma line. When tumours reached approximately 72 mg in size animals were pair matched into treatment and control groups with 10 mice in each group. Each mouse was tagged and followed individually throughout the experiment.
“Compound 1” was administered i.v. in a saline vehicle from day one. Vehicle control group animals were administered saline i.v. There were nine treatment groups including the vehicle control group. […]
At the end of the treatment period the mice were weighed and sacrificed. Each tumour was excised and weighed and a mean actual tumour weight (mg) per group was calculated along with the mean actual volume (mm^3). […] Mean tumour regression was determined using the formula [1−(mean actual tumour weightFINAL/mean tumour weightDAY 1)×100%].

SSTR-1 = molecular target: T1, SSTR-1 (Homo sapiens, UniProt P30872); assay: Radioligand binding screen against somatostatin subtype SSTR-1; conditions: concentration required to displace 50% of the competitive radioligand; read-out: IC50 SSTR1
T1 construct: expressed in transfected cells
T1 sequence (P30872 whole entry, species assumed): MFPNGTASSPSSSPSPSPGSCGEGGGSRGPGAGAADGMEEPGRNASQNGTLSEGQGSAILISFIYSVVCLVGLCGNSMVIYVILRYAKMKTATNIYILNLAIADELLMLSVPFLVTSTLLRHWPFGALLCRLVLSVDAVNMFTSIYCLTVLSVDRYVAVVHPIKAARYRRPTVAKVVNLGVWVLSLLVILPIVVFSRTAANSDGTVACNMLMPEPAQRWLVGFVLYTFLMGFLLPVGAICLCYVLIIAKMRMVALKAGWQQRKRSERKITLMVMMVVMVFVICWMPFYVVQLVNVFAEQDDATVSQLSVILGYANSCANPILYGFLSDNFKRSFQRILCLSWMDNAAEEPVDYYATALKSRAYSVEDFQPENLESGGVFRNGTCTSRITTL
Experimental: Receptor membrane preparations containing the desired cloned receptor (for example cloned human somatostatin receptor subtype 5, SSTR5) and radio-labeled ligand (for example 3-[^125I]iodotyrosyl^11 Somatostatin-14)) were diluted at the concentration required for testing and according to the specific parameters associated with the selected receptor-ligand combination, including receptor Bmax, ligand Kd and any other parameters necessary to optimize the experimental conditions. When tested for competition activity to the reference ligand, “compound 1” was mixed with membrane suspension and the radiolabeled reference ligand (with or without an excess of cold ligand to the receptor for determination of non-specific binding) and incubated at the temperature required by internal standard operating procedures. Following incubation, the binding reaction was stopped by the addition of ice-cold washing buffer and filtered on appropriate filters, which are then counted. Data analysis and curve-fitting was performed with XLfit (IDBS).
10 mM solutions of test compounds in 100% DMSO were prepared. ˜160 μl was used for each dilution (20 μl/well in triplicate).
A 1.25 mM assay stock was prepared by making a 1:8 dilution of the 10 mM solution. (To 30 μL of the 10 mM solution was added 210 μL milli-Q H2O. A 1:5 dilution series in milli-Q H2O was then prepared.
In primary screening experiments compounds were tested in duplicate for a particular concentration.

[3] = Solubility of salts of compound 1; type: physicochemical; conditions: Water, overnight; listed as Free Base (Compound 1)
[4] = predicted from human microsomal degradation

CLint scaled ([1]; human hepatocyte microsomes, pH 7.4, predicted from human microsomal degradation): 3.73 L/h/kg | half-life ([1]; human hepatocyte microsomes, human microsomal incubation, 37° C., pH 7.4, read-out: Degradation t1/2): 32.2 min | Predicted CLblood [1, 4]: 0.93 L/h/kg | Predicted EH [1, 4]: 0.75 | IC50 (SSTR-1): > 12.5 µM | Solubility in Water [3]: >0.2 mg/mL
SMILES: COC[C@H]1O[C@H](OCCc2ccccc2)[C@H](NC(=O)CCCN)[C@@H](OCc2ccc3ccccc3c2)[C@@H]1O [Compound 1]
Inhibition of cell proliferation (Jurkat cell line): no inhibitory effect | Inhibition of cell proliferation (MCF—7 cell line): no inhibitory effect | Tumour growth inhibition (TGI) ([2]; group nine: 35 mg/kg compound 1 i.v. qdx28 and paclitaxel 16 mg/kg i.p. qdx5): 75.1% | Tumour growth inhibition (TGI) ([2]; group seven: 20 mg/kg compound 1 i.v. qdx28 and paclitaxel 16 mg/kg i.p. qdx5): 56.9%
